Assay results as given in US4191688A, “Amides of leurosine, leuroformine, desacetylleurosine and desacetylleuroformine” (Eli Lilly and Company, priority 1978, dated 1980).
Several values for one entry are separate records, joined by “and”; a condition that tells them apart may be missing. Identical values can stand only once. Like-named read-outs stand apart in the source and are kept apart here.

Experiments:
[1] = tested on: Gardner lymphosarcoma; assay: Activity versus Gardner Lymphosarcoma in mice; format: in vivo; settings: 9 days, usually intraperitoneal
Method: The following table--Table 1--gives the results of experiments in which mice bearing transplanted Gardner lymphosarcoma were treated successfully with a compound of this invention. In the table, column 1 gives the name of the compound; column 2, the dose level and column 3, the percent inhibition of tumor growth.

[2] = tested on: experimental malignancies; settings: animals; cited from earlier work
[3] = tested on: P1534 murine leukemia; settings: Hargrove, Lloydia 1964, cited from earlier work
[4] = tested on: tumor; settings: Owellen 1975; Cullinan 1975; cited from earlier work
[5] = pKa titration; format: physicochemical; settings: for pKa: 66 percent dmf, in 66 percent DMF
Method: A reaction mixture containing 450 mg. of leurosine, 15 ml. of tetrahydrofurane (THF), 8 ml. of anhydrous hydrazine, and 6 ml. of methanol were heated in a sealed glass bomb for 3 days at 50° C. The bomb was opened, the solvents removed in vacuo, and the resulting residue comprising 4-desacetylleurosine C-3 carboxhydrazide formed in the above reaction, was dissolved in methylene dichloride. The methylene dichloride solution was washed with water and dried. Removal of the solvent in vacuo yielded 4-desacetylleurosine C-3 carboxhydrazide as a residue shown by TLC to contain trace quantities of leurosine and of 4-desacetylleurosine. Pure 4-desacetylleurosine C-3 carboxhydrazide (1-spot material) was prepared by chromatographing the residue over silica using 1:1:1 methylenedichloride/ethyl acetate/methanol as the eluant. Fractions shown by TLC to contain 4-desacetylleurosine C-3 carboxhydrazide were combined.
Titration; pKa at 5.3, 7.0

[6] = tested on: P388 leukemia; assay: Activity against P388 leukemia in mice; format: in vivo; settings: 3 days apart
[7] = Stability on standing in air; format: physicochemical; settings: upon standing in air
[8] = titration, free base, solvent not stated

## CCC12CN3CCc4c([nH]c5ccccc45)C(C(=O)OC)(c4cc5c(cc4OC)N(C)C4C(O)(C(=O)NCCO)C(O)C6(CC)C=CCN7CCC54C76)CC(C3)C1O2 (stereo not drawn) [4-Desacetylleurosine C-3 N-(β-hydroxyethyl)carboxamide]
[1]; 6 mg/kg per day
  Percent Inhibition of tumor growth: 100%
[1]; 12 mg/kg per day
  Percent Inhibition of tumor growth: 100% and 98%

## CCC12CN3CCc4c([nH]c5ccccc45)C(C(=O)OC)(c4cc5c(cc4OC)N(C)C4C(O)(C(=O)NC)C(O)C6(CC)C=CCN7CCC54C76)CC(C3)C1O2 (stereo not shown) [4-Desacetylleurosine C-3 N-Methyl Carboxamide]
[1]; 3 mg/kg per day
  Percent Inhibition of tumor growth: 33%
[1]; 6 mg/kg per day
  Percent Inhibition of tumor growth: 100%
[1]; 12 mg/kg per day
  Toxicity (printed in Percent Inhibition column): Toxic

## CC[C@]1(O)C[C@@H]2CN(CCc3c([nH]c4ccccc34)[C@@](C(=O)OC)(c3cc4c(cc3OC)N(C)[C@@H]3[C@]45CCN4CC=C[C@@](CC)(C[C@]3(O)C(=O)OC)[C@H]45)C2)C1 [4-desacetoxy vinblastine]
[2]
  activity in the treatment of experimental malignancies: active

## CC[C@@]1(O)CN2CCc3c([nH]c4ccccc34)[C@@](C(=O)OC)(c3cc4c(cc3OC)N(C)[C@@H]3[C@]45CCN4CC=C[C@@](CC)(C[C@]3(O)C(=O)OC)[C@H]45)C[C@@H](C2)C1O (stereo partly shown) [4-desacetoxy-3'-hydroxyvinblastine]
[2]
  activity in the treatment of experimental malignancies: active

## CCC1(O)CC2CN(CCc3c([nH]c4ccccc34)C(C(=O)OC)(c3cc4c(cc3OC)N(C)C3C(O)(C(=O)OC)C(O)C5(CC)C=CCN6CCC43C65)C2)C1 (stereo not shown) [4-desacetyl VLB]
[3]
  toxicity: toxic material
[3]; P1534 murine leukemia system
  in vivo chemotherapeutic activity: little in vivo chemotherapeutic activity
[4]
  anti-tumor activity: active anti-tumor agent

## CCC12CN3CCc4c([nH]c5ccccc45)C(C(=O)OC)(c4cc5c(cc4OC)N(C=O)C4C(O)(C(N)=O)C(O)C6(CC)C=CCN7CCC54C76)CC(C3)C1O2 (stereo not shown) [4-desacetylleuroformine C-3 carboxamide, 4-Desacetylleuroformine C-3 Carboxamide]
[1]; 12 mg/kg per day
  Percent Inhibition of tumor growth: 39%

## CCC12CN3CCc4c([nH]c5ccccc45)C(C(=O)OC)(c4cc5c(cc4OC)N(C)C4C(O)(C(N)=O)C(O)C6(CC)C=CCN7CCC54C76)CC(C3)C1O2 (stereo not shown) [4-desacetylleurosine C-3 carboxamine, 4-Desacetylleurosine C-3 Carboxamide]
[1]; 3 mg/kg per day
  Percent Inhibition of tumor growth: 23%
[1]; 6 mg/kg per day
  Percent Inhibition of tumor growth: 100%
[1]; 12 mg/kg per day
  Toxicity (printed in Percent Inhibition column): Toxic

## CCC12CN3CCc4c([nH]c5ccccc45)C(C(=O)OC)(c4cc5c(cc4OC)N(C)C4C(O)(C(=O)NN)C(O)C6(CC)C=CCN7CCC54C76)CC(C3)C1O2 (stereo not shown) [4-desacetylleurosine C-3 carboxhydrazide, 4-Desacetylleurosine C-3 Carboxhydrazide]
[5]; read-out: pKa (first)
  pKa: 5.32
[5]; read-out: pKa (second)
  pKa: 7.12

## CCC12CN3CCc4c([nH]c5ccccc45)C(C(=O)OC)(c4cc5c(cc4OC)N(C)C4C(O)(C(=O)NCCSSCCNC(=O)C6(O)C(O)C7(CC)C=CCN8CCC9(c%10cc(C%11(C(=O)OC)CC%12CN(CCc%13c%11[nH]c%11ccccc%13%11)CC%11(CC)OC%12%11)c(OC)cc%10N(C)C69)C87)C(O)C6(CC)C=CCN7CCC54C76)CC(C3)C1O2 (stereo not drawn) [Bis[β-(4-desacetylleurosine C-3 carboxamide)ethyl]disulfide disulfate]
[6]; 15 mg/kg on three occasions
  prolongation of survival time: 55%
[6]; 30 mg/kg on three occasions
  prolongation of survival time: 46%

## CCC12CN3CCc4c([nH]c5ccccc45)C(C(=O)OC)(c4cc5c(cc4OC)N(C)C4C(O)(C(=O)NCCSSCCNC(=O)C6(O)C(O)C7(CC)C=CCN8CCC9(c%10cc(C%11(C(=O)OC)CC%12CN(CCc%13c%11[nH]c%11ccccc%13%11)CC%11(CC)OC%12%11)c(OC)cc%10N(C)C69)C87)C(O)C6(CC)C=CCN7CCC54C76)CC(C3)C1O2 (stereo not drawn) [Bis[β-(4-desacetylleurosine C-3 carboxamido)ethyl]disulfide]
[5]; [8]
  pKa (first): 5.3
  pKa (second): 7.0

## CC[C@@H]1C[C@@H]2CN(CCc3c([nH]c4ccccc34)[C@@](C(=O)OC)(c3cc4c(cc3OC)N(C)[C@H]3[C@@](O)(C(=O)OC)[C@H](OC(C)=O)[C@]5(CC)C=CCN6CC[C@]43[C@@H]65)C2)C1 [deoxy VLB "A"]
[2]
  activity in the treatment of experimental malignancies: active

## CCC1(O)CN2CCc3c([nH]c4ccccc34)C(C(=O)OC)(c3cc4c(cc3OC)N(C)C3C(O)(C(=O)OC)C(OC(C)=O)C5(CC)C=CCN6CCC43C65)CC(O)(C2)C1 (stereo not shown) [leurocolombine]
[2]
  activity in the treatment of experimental malignancies: active

## CCC1(O)CC2CN(CCc3c([nH]c4ccccc34)C(C(=O)OC)(c3cc4c(cc3OC)N(C=O)C3C(O)(C(=O)OC)C(OC(C)=O)C5(CC)C=CCN6CCC43C65)C2)C1 (stereo not shown) [leurocristine]
[2]
  activity in the treatment of experimental malignancies: active

## CCC12CN3CCc4c([nH]c5ccccc45)C(C(=O)OC)(c4cc5c(cc4OC)N(C=O)C4C(O)(C(=O)OC)C(OC(C)=O)C6(CC)C=CCN7CCC54C76)CC(C3)C1O2 (stereo not shown) [leuroformine]
[2]
  activity in the treatment of experimental malignancies: active

## CC[C@]12CN3CCc4c([nH]c5ccccc45)[C@@](C(=O)OC)(c4cc5c(cc4OC)N(C)[C@H]4[C@@](O)(C(=O)OC)[C@H](OC(C)=O)[C@]6(CC)C=CCN7CC[C@]54[C@@H]76)C[C@H](C3)[C@H]1O2 [leurosine]
[2]
  activity in the treatment of experimental malignancies: active
[7]
  auto-oxidation: auto-oxidizes to a 5'-hydroxy derivative

## CCC1(O)CN2CCc3c([nH]c4ccccc34)C(C(=O)OC)(c3cc4c(cc3OC)N(C)C3C(O)(C(=O)OC)C(OC(C)=O)C5(CC)C=CCN6CCC43C65)CC(C2)C1O (stereo not shown) [vincadioline]
[2]
  activity in the treatment of experimental malignancies: active

## CCC1(O)CC2CN(CCc3c([nH]c4ccccc34)C(C(=O)OC)(c3cc4c(cc3OC)N(C)C3C(O)(C(=O)OC)C(OC(C)=O)C5(CC)C=CCN6CCC43C65)C2)C1 (stereo not shown) [vincaleukoblastine]
[2]
  activity in the treatment of experimental malignancies: active
